Columns and labels:
[1] = system: Patient with ADHD, Generalized Anxiety Disorder, and Obsessive-Compulsive Behavior; test: Case report Example 3: VYVANSE; assay type: in vivo, human
Description: The patient is a non-geriatric adult diagnosed with a history of ADHD, inattentive type, and comorbid Generalized Anxiety Disorder, though had no prior treatment. Presenting ADHD symptoms included difficulty sustaining attention and attending to details, difficulty organizing tasks with tendencies toward avoidance, distractibility, and problems finishing tasks that have been initiated. Symptoms of Generalized Anxiety Disorder included frequent and intense ruminative worrying, feeling overly fatigued, muscle tension and intermittent problems with sleep. […] The patient was started on VYVANSE 30 mg in the morning, along with TRAZODONE 50 mg at bedtime. VYVANSE was maintained at 30 mg once daily in the morning for one week, followed by one week at 50 mg per day, and then 70 mg per day, taken in the morning. […] The patient maintained treatment on VYVANSE at 70 mg per day for 10 weeks; TRAZODONE 50 mg at bedtime was discontinued after 4 weeks as sleep patterns had sufficiently normalized. […] The patient previously felt little or no control around such worrying, ruminative behavior and speculated that it caused significant mental and even physical fatigue.
Stimulant medications have traditionally been associated with causing or worsening anxiety symptoms (for instance, being ‘anxiogenic’).

[2] = system: Patient with Comorbid Depressive Disorders and Binge Eating Behavior; test: Case report Example 4: VYVANSE; assay type: in vivo, human
Description: The patient also endorsed symptoms of ADHD, inattentive type, primarily around problems with organizing tasks, procrastination of work activities, and problems completing projects, though such ‘inattention’ symptoms were considered as clinically less detrimental than feeling chronically depressed, lacking motivation or interest in work or social activities, feeling fatigued and sometimes guilty, and having gained weight over several years due to ‘emotional eating’ behavior. The patient had received therapy in the past to address depressive episodes and associated life stressors, with modest benefit. The patient also described a history of ‘emotional eating’ that could occur at any time of day though more often in the late afternoons or early evenings. Such ‘emotional eating’ was often triggered by stressful situations or events, accompanied by an urge to eat, and would typically lead to excess consumption of carbohydrate-based foods. In recent years, the patient reported having gained over 10% body weight and noted a general trend toward increasing emotional eating and binging behavior. More severe binges occurred at least several times per month over a stretch of several years, though were much less common than ‘emotional eating’ that was milder in nature and occurred nearly daily. […] The patient was maintained on VYVANSE for 10 weeks at 50 mg per day. […] Symptoms of emotional eating were improved in the evenings as well, with less than one per week on average as compared to most evenings previously. […] The organization and execution of work-related tasks improved during the course of treatment as well.
The patient also began a trend of weight loss on account of decreased emotional eating and binging. The patient's ADHD was also clinically relevant, which is the primary reason VYVANSE was chosen as the initial medication treatment, though it was not the reason for which evaluation and treatment was sought and of secondary importance with regard to symptoms causing the patient difficulty and concern. […] Binge-eating behavior, largely taking the form of ‘self-soothing’ eating activity with potentially serious risks in this patient insofar as it was causing steady increased weight gain to the point of obesity), responded remarkably well to treatment with VYVANSE.

[3] = system: patient with Binge Eating Disorder, Medication-Induced Cognitive Problems, and Fatigue; test: Case report Example 5: VYVANSE added to existing regimen; assay type: in vivo, human
Description: The patient previously has been treated with therapy and has had multiple prior medication trials, either discontinued due to lack of efficacy or side effects, including ZOLOFT (sertraline), CELEXA (citalopram), PROZAC (fluoxetine), LEXAPRO (escitalopram), WELLBUTRIN SR (bupropion HCl), NORTRIPTYLINE, ATIVAN (lorazepam), ABILIFY (aripiprazole), RISPERDAL (risperidone), SEROQUEL (quetiapine), LYRICA (pregabalin), and RITALIN (methylphenidate). Selective serotonin reuptake inhibitors exacerbated binge eating symptoms and caused problematic weight gain. For treatment of depression with comorbid anxiety, binge-eating, and weight-gain related to binge eating symptoms, the patient was maintained on a medication regimen that included TOPAMAX (topiramate) 175 mg in the morning and 200 mg at night, LAMICTAL (lamotrigine) 200 mg in the morning, CYTOMEL (liothyronine) 25 mcg per day, KLONOPIN (clonazepam) 0.25 mg at bed time, and NEURONTIN (gabapentin) 600 mg at bedtime. […] Given prior poor response to a number of different classes of medication trials, off-label use of VYVANSE was initiated at 30 mg each morning to target a constellation of symptoms, including symptoms of major depression, binge-eating disorder, fatigue, and concentration problems. VYVANSE was maintained at 30 mg each morning for weeks before being discontinued due to adverse effects. […] However, there appeared to be no benefit on the patient's depressed mood, amotivation, and feelings of hopelessness.
This case exemplifies the clinical benefit of lisdexamfetamine dimesylate on binge-eating symptoms and potentially on weight-gain related to binging (body weight was not obtained), though longer-term treatment was cut short by adverse effects at the 30 mg dosage form. Given the number of failed prior trials, off-label use of VYVANSE was clinically indicated, especially given the severity of binge eating behavior.

[4] = system: Patient with Comorbid Generalized Anxiety Disorder, Major Depression, and ADHD; test: Case report Patient 6: VYVANSE added to PAXIL
Description: The patient was maintained on PAXIL (paroxetine) 30 mg per day following a significant comorbid major depressive episode associated with anxiety symptoms, and a history consistent with Generalized Anxiety Disorder. […] However, after beginning a new job with more challenging responsibilities, the patient was unable to compensate for such deficits and a pattern of obsessive ruminations emerged, often involving work. In addition to perseverative and obsessive thinking, the patient experienced heightened anxiety and mild depressive symptoms, including fatigue, low mood, and amotivation, especially while at work. After discussing medication options and side effect concerns, VYVANSE was initiated to address underlying ADHD symptoms, which were felt to drive the patient's perseverative thinking, anxious ruminations, and low mood. […] PAXIL was maintained at 30 mg per day.

[5] = once per day dosing; cited from earlier work
[6] = system: Patient with Binge Eating Disorder and Major Depressive Disorders; test: Case report Patient 2: lisdexamfetamine dimesylate monotherapy
[7] = system: Patient with Major Depressive Disorders and Binge Eating Disorder; test: Case report Patient 1: lisdexamfetamine dimesylate added to ZOLOFT

SMILES: CS(=O)(=O)O.CS(=O)(=O)O.C[C@@H](Cc1ccccc1)NC(=O)[C@@H](N)CCCCN [lisdexamfetamine dimesylate, (2S)-2,6-diamino-N-[(1S)-1-methyl-2-phenylethyl]hexanamide dimethanesulfonate]
- compulsive ruminating and worrying ([1]; 70 mg per day): highly significant improvement
- ability to sustain attention and attend to details, organize and finish projects, process information ([1]; 70 mg per day, compared to previous baseline function): significantly enhanced
- inattention symptoms ([1]; after 10 weeks at 70 mg per day): only mildly affected
- 'wear off' during treatment of Generalized Anxiety Disorder symptoms ([1]; for the duration of the day): no problematic ‘wear off’
- ADHD and Generalized Anxiety Disorder symptoms ([1]; within the first week, 30 mg in the morning with TRAZODONE 50 mg at bedtime): positive effect
- adverse effects ([2]; 30 mg per day for two weeks, increased to 50 mg per day): without any adverse effects
- emotional eating behavior in the afternoon ([2]; 50 mg daily): abrupt and sustained cessation
- depressive symptoms ([2]; 10 weeks at 50 mg per day): significant amelioration
- major binges ([2]; at any point while taking VYVANSE, before at least several times per month): no reported major binges
- organization and execution of work-related tasks ([2]; during the course of treatment): improved
- emotional eating in the evenings ([2]; on average, compared to most evenings previously): less than one
- weight lost ([2]; over 2½ months of treatment): 6-7 pounds
- absolute binges per week ([3]; 30 mg each morning): fewer
- binge-eating days per week ([3]; 30 mg each morning): fewer
- depressed mood, amotivation, and feelings of hopelessness ([3]; 30 mg each morning): no benefit
- fatigue and concentration throughout the day ([3]; 30 mg each morning): improvement
- urge to binge ([3]; 30 mg each morning, during the time of treatment): notably reduced
- adverse effects leading to discontinuation ([3]; 30 mg each morning, with TOPAMAX, LAMICTAL, CYTOMEL, KLONOPIN, NEURONTIN): excessive appetite suppression and visual blurring
- adverse effect ([4]; 30 mg per day for one week, titrated to 50 mg per day): without adverse effect
- ADHD, Generalized Anxiety Disorder, and Major Depressive Disorder symptoms ([4]; ensuing 9 weeks, with PAXIL 30 mg per day): improvement
- weight loss ([4]; over 2 months of treatment, VYVANSE 50 mg per day with PAXIL 30 mg per day): 4-5%
- mood, motivation and energy ([4]; with PAXIL 30 mg per day): improved
- worrying ([4]; with PAXIL 30 mg per day): substantial reduction
- time after administration for which significant effects have been demonstrated [5]: up to 12 hours
- ADHD symptoms ([6]; Patient 2): as effective as […] XR
- triglyceride levels ([6]; end of 5 weeks of treatment, 271 mg/dL prior to treatment): 160 mg/dL
- binging episodes ([6]; first 2 weeks of treatment, before at least two days per week): only once
- depressive symptoms (depressed mood, interest level, sleep quality, physical fatigue) ([6]; monotherapy, about 10 weeks): overall improvement
- total body weight lost ([6]; obese patient, about 10 weeks on lisdexamfetamine dimesylate (70 mg from day 3)): approximately 7%
- binging episodes ([6]; subsequent 8 weeks of treatment): stopped entirely
- depressive symptoms ([7]; 8 weeks of maintenance on 70 mg in addition to 100 mg ZOLOFT (sertraline)): full remission
- binging days ([7]; for the 8 weeks at 70 mg daily along with 100 mg ZOLOFT): no more than 3
- reduction of binging eating days per month ([7]; from approximately 12 or more to no more than 3 per month): approximately 75%
- binge eating days per month ([7]; while taking lisdexamfetamine dimesylate, before approximately 12 or more per month): no more than 3 per month

SMILES: CC1(C)O[C@@H]2[C@@H](CO[C@@]3(COS(N)(=O)=O)OC(C)(C)O[C@@H]23)O1 [TOPAMAX, topiramate]
- binge eating behavior ([3]; TOPAMAX 175 mg in the morning and 200 mg at night, clinically insufficient): helped reduce
- tolerability ([3]; in vivo): poorly tolerated at higher doses due to cognitive side effects

SMILES: Fc1ccc([C@@H]2CCNC[C@H]2COc2ccc3c(c2)OCO3)cc1 [PAXIL, paroxetine]
- depressive and anxiety symptoms ([4]; PAXIL 30 mg per day): rapidly stabilized

From patent publication US8318813B2, “Method of treating binge eating disorder” (LCS Group, LLC, priority 2007, dated 2012)
